Test results from ChEMBL document CHEMBL1201862, “PubChem BioAssay data set” (2004).
The source made the active and inactive calls.

What was measured:
Fatty acid synthase [1] = molecular target: T1, Fatty acid synthase (Homo sapiens, UniProt P49327); experiment: inhibition of human FAS-TE enzyme activity – biochemical, kinetic fluorescence intensity, dose response (AID 624326); format: functional;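 further: rate of fluorescence rise from hydrolysis of a fluorogenic O-methyl fluorescein ester substrate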
T1 sequence (P49327 whole entry): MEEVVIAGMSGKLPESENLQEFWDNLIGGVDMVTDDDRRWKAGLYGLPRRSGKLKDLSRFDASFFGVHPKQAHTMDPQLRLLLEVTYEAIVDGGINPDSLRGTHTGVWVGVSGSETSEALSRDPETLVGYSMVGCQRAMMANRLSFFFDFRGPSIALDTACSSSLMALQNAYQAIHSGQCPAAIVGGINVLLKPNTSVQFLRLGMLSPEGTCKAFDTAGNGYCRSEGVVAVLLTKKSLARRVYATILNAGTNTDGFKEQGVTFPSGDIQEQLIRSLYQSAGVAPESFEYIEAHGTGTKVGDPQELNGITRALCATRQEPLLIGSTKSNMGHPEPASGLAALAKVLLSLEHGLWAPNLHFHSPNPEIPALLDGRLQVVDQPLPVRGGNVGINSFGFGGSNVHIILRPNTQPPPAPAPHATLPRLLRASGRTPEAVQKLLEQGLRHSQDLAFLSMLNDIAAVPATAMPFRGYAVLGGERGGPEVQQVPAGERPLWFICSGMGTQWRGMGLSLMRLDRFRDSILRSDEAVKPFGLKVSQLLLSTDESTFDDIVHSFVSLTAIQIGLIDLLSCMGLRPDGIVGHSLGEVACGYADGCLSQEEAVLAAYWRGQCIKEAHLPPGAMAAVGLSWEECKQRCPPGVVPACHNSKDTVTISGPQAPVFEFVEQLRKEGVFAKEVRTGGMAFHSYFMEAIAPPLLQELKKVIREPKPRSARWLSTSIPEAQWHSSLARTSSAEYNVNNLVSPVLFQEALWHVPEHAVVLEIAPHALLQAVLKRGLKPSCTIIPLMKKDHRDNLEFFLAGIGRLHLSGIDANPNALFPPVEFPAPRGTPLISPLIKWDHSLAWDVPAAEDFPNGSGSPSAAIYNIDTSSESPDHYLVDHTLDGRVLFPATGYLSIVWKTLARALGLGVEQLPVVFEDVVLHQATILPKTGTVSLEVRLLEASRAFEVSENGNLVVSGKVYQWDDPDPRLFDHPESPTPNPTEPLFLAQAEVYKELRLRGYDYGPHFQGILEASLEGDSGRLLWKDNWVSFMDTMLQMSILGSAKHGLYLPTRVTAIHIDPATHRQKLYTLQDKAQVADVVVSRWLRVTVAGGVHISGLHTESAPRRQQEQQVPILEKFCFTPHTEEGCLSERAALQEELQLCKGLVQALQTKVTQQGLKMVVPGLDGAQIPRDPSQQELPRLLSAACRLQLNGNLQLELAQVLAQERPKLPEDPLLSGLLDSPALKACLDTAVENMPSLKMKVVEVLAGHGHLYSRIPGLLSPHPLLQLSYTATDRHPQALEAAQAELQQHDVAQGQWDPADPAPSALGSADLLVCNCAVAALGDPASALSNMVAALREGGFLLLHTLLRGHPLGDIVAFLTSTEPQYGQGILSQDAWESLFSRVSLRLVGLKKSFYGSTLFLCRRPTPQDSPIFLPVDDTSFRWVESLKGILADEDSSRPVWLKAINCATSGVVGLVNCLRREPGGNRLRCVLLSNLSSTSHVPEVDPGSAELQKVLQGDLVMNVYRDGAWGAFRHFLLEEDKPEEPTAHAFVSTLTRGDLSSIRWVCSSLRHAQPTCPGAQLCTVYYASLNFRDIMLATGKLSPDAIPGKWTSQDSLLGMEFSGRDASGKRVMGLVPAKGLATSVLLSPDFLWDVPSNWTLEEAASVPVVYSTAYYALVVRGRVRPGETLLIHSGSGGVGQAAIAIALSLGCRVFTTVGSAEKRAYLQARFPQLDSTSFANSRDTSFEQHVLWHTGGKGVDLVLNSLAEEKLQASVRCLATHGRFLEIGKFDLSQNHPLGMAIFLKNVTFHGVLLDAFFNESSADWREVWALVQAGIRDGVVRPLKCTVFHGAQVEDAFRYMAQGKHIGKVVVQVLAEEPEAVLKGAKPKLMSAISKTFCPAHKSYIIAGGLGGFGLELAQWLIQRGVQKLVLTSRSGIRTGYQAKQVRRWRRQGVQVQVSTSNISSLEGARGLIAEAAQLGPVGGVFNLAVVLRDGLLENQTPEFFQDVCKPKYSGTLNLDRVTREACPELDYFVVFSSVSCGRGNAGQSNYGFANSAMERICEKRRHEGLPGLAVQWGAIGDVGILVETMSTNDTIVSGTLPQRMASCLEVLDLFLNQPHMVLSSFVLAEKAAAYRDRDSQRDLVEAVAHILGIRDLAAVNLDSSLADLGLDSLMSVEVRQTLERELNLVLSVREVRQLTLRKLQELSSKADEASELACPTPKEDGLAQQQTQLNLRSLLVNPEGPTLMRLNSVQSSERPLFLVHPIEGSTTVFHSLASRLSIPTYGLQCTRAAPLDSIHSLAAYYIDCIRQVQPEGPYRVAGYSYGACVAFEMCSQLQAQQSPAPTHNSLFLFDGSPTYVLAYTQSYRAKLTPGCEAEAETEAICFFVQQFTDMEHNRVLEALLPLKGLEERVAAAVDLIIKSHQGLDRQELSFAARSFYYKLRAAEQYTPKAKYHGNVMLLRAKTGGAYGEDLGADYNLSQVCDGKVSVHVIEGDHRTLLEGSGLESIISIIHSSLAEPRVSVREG

Fatty acid synthase [2] = molecular target: T1, Fatty acid synthase; experiment: inhibition of human FAS-TE enzyme activity – biochemical, endpoint fluorescence intensity, uHTS hits, dose response (AID 624327); format: functional;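 further: fluorescence from hydrolysis of an O-methyl fluorescein acyl ester substrate by the enzyme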
Protein RecA = molecular target: T2, Protein RecA (Mycobacterium tuberculosis, UniProt P9WHJ3); experiment: Fluorescence Cell-Free Homogeneous Dose Retest to Identify Inhibitors of RecA-Intein Splicing Activity. [Related pubchem assays (depositor defined):AID2097, AID2223, AID489010, AID492950]; format: functional
T2 sequence (P9WHJ3 whole entry): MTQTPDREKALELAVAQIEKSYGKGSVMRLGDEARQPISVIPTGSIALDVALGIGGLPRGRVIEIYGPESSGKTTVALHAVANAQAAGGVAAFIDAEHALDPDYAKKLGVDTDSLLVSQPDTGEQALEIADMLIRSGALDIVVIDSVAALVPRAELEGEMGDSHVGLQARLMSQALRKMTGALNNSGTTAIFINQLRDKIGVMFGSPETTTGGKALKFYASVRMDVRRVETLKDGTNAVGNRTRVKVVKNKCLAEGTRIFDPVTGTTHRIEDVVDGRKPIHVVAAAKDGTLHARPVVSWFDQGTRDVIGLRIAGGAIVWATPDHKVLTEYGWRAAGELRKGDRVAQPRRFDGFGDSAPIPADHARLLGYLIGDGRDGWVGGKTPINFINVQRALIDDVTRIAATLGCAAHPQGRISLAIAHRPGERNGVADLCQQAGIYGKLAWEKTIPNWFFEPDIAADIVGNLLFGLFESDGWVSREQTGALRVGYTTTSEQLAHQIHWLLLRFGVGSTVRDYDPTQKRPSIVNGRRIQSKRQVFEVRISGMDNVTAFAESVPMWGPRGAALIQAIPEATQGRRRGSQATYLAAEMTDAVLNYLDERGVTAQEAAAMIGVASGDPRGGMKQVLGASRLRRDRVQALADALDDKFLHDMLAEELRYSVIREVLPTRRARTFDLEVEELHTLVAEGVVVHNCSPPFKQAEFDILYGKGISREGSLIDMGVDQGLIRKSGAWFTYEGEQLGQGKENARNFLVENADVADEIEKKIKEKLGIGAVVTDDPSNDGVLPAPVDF

[3] = molecular target: T3, Replicative DNA helicase DnaB (Mycobacterium tuberculosis, UniProt P9WMR3); experiment: DnaB intein splicing inhibitors, dose response, biochemical, cell-free fluorescence (AID 449749); format: functional
T3 sequence (P9WMR3 whole entry): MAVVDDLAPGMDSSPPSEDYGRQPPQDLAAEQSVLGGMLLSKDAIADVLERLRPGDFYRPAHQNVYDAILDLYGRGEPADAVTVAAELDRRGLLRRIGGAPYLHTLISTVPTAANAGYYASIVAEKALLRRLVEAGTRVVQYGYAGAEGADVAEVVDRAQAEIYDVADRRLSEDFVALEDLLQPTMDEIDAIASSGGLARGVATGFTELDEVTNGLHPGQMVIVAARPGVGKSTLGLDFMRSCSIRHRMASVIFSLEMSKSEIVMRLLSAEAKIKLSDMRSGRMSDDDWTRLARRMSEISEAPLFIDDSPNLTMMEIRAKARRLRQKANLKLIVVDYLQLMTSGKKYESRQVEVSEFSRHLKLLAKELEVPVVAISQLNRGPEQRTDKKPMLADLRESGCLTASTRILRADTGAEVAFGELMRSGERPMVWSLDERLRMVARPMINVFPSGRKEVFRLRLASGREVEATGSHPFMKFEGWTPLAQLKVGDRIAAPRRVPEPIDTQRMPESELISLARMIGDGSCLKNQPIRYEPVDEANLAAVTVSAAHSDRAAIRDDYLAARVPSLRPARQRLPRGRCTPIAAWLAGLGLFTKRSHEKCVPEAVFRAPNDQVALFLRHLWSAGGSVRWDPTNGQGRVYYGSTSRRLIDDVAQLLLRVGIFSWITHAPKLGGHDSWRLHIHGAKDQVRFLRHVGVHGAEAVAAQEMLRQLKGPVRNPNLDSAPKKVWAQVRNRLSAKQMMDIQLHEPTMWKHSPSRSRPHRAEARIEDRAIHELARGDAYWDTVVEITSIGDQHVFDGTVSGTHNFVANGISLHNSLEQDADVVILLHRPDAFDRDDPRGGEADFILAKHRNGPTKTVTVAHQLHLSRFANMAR

[4] = molecular target: FAD-linked sulfhydryl oxidase ALR (Homo sapiens, UniProt P55789); experiment: ALR-catalysed DTT oxidation blockers – biochemical, H2O2 detection, luminescence, cherry-pick, dose response (AID 493248)
Chain of FAD-linked sulfhydryl oxidase ALR (P55789 whole entry): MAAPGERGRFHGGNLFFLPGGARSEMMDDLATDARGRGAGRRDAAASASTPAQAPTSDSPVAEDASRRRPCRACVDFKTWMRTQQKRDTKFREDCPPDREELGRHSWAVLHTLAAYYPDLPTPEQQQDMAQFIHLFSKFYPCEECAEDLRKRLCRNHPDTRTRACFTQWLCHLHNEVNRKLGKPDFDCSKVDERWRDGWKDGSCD

[5] = system: Streptococcus sp. 'group A'; experiment: Streptococcus pyogenes SK(-)GAS viability under kanamycin – luminescence, BacTiterGlo, confirmation, counter-screen for streptokinase expression inhibitor project, dose response (AID 1900); format: functional, organism-based
Streptococcus = experiment: GAS UMAA2166 growth inhibition – luminescence, BacTiterGlo, counter-screen for streptokinase expression inhibitor project, dose response (AID 1915); format: functional, organism-based;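 further: potency for reduction of bacterial viability or growth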
Streptokinase A = molecular target: T4, Streptokinase A (Streptococcus pyogenes serotype M1, UniProt P10520); experiment: viability-normalized secreted streptokinase activity reduction – plasminogen activation absorbance, OD405, dose response (AID 1914); format: functional, Streptococcus pyogenes M1 GAS;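 further: secreted streptokinase activity via plasminogen activation per viability signal from cell pellet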
T4 sequence (P10520 whole entry): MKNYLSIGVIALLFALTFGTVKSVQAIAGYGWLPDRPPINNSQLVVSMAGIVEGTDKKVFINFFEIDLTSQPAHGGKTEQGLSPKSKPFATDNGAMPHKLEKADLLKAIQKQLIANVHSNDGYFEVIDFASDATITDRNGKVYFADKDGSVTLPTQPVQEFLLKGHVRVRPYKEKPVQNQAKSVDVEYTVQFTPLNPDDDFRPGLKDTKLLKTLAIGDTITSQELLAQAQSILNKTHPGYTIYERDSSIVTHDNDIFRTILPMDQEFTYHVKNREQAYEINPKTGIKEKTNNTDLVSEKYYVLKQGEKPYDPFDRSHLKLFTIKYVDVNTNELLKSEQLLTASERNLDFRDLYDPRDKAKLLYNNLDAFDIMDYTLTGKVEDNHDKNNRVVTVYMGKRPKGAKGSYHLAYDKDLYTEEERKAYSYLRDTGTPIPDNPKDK

INS1 = experiment: INS-1E survival protection against cytokine death – cell-based, luminescence, retest, dose response (AID 449756); format: functional; details: Rattus norvegicus;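 further: cell death triggered by IL-1 beta plus TNF-alpha plus IFN-gamma mixture; protective hits raise ATP signal compared with cytokine alone wells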
Cytochrome P450 2D6 = Cytochrome P450 2D6 (Homo sapiens, UniProt P10635);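 further: CYP2D6 member of a cytochrome P450 panel assay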
Chain of Cytochrome P450 2D6 (P10635 whole entry): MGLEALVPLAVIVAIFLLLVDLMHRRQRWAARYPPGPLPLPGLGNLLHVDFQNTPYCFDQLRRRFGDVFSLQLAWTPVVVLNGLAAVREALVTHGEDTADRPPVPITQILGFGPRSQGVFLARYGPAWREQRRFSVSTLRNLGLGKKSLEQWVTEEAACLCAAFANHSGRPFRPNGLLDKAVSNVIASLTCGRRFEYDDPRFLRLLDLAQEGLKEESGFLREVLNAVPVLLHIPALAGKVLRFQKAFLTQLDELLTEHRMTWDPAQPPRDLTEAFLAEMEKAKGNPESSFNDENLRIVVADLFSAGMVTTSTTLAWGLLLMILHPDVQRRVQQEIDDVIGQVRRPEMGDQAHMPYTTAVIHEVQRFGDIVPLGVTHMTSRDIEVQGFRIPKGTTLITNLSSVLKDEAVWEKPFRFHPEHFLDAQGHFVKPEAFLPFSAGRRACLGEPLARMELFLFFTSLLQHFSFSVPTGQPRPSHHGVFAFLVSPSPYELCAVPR

Cytochrome P450 1A2 = molecular target: T5, Cytochrome P450 1A2 (Homo sapiens, UniProt P05177);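 further: PubChem cytochrome P450 panel assay, CYP1A2 panel member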
T5 sequence (P05177 whole entry): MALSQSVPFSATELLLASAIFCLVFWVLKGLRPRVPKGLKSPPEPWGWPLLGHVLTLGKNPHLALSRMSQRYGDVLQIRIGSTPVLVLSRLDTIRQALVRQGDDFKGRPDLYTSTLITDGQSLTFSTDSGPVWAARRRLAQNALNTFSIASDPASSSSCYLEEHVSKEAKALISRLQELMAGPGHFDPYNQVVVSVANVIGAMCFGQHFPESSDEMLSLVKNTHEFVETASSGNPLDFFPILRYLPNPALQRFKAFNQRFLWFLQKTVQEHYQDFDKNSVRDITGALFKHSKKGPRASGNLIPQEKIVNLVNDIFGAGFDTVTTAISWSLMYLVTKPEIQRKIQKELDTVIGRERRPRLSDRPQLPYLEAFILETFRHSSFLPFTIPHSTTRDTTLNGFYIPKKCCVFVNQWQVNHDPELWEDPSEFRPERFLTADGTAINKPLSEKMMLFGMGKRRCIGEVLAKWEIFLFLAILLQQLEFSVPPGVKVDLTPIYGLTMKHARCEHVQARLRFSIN

[6] = Luminescence Cell-Based Dose Retest to Confirm Inhibitors of Cancer Stem Cells. [Related pubchem assays (depositor defined):AID2717, AID2721]; format: functional; details: Homo sapiens
Cytochrome P450 2C19 = Cytochrome P450 2C19 (Homo sapiens, UniProt P33261); experiment: Cytochrome panel assay with activity outcomes. Panel member name: p450-cyp2c19 Compounds with AC50 equal or less than 10 uM are considered active; format: functional; details: read-out: AC50
Chain of Cytochrome P450 2C19 (P33261 whole entry): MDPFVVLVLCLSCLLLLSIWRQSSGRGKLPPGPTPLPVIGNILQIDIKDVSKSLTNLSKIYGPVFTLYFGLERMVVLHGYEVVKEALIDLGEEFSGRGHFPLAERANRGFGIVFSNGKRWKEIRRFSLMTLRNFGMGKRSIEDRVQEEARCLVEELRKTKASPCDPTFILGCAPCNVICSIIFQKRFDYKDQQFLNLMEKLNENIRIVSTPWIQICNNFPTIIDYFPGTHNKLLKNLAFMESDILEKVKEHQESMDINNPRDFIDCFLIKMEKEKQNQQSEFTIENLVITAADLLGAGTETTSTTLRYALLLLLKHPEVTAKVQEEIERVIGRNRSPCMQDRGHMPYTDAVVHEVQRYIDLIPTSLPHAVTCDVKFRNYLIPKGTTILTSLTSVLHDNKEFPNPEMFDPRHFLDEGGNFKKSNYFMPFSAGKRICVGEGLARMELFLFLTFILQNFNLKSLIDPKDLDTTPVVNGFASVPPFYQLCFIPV

Cytochrome P450 2C9 = Cytochrome P450 2C9 (Homo sapiens, UniProt P11712)
Chain of Cytochrome P450 2C9 (P11712 whole entry): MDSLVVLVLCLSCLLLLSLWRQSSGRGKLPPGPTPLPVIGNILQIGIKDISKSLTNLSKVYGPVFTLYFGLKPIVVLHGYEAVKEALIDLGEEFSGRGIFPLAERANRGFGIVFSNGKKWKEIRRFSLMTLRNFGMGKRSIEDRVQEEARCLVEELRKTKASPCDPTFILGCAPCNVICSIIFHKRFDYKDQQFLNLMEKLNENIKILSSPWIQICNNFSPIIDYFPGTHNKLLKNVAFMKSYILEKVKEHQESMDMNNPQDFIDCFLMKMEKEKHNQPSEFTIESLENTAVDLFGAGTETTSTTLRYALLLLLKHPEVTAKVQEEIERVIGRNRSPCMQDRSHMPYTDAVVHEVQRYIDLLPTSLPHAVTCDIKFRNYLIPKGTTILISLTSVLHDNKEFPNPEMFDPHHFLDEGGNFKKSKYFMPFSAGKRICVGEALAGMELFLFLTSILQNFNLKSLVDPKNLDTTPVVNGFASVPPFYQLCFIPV

Cytochrome P450 3A4 = Cytochrome P450 3A4 (Homo sapiens, UniProt P08684);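 further: CYP3A4 tested as one member of a cytochrome P450 panel screen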
Chain of Cytochrome P450 3A4 (P08684 whole entry, the tested form may be a part): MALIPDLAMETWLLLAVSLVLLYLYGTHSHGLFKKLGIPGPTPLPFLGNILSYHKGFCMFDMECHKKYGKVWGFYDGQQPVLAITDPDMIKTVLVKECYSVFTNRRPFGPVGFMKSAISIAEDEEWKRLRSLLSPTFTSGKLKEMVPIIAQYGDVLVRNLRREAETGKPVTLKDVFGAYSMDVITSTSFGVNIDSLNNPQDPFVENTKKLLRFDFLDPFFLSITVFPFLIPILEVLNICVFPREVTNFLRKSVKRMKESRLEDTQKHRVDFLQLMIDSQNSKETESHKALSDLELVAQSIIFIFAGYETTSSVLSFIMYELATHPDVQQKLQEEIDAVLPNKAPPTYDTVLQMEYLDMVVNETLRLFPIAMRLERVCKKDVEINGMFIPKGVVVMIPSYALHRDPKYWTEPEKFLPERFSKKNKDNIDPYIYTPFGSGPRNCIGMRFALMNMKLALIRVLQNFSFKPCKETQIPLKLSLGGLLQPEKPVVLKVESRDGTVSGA

[7] = molecular target: T6, RNA-binding protein pos-1 (Caenorhabditis elegans, UniProt G5EF15); experiment: disruptors of C. elegans POS-1 RNA interaction – biochemical, fluorescence polarization, dose response (AID 1964);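 further: purified POS-1 fused to maltose binding protein made in E. coli; potency of compounds blocking POS-1 binding to fluorescent RNA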
T6 sequence (G5EF15 whole entry): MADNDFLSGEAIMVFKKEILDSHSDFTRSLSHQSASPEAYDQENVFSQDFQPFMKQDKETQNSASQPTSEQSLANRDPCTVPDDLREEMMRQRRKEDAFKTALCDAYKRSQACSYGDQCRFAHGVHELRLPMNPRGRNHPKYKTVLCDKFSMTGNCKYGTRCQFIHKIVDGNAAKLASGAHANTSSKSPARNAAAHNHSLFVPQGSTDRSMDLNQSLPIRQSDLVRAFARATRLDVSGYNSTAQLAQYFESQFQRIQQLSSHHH

O=C(COC(=O)c1cccc([N+](=O)[O-])c1)NC1CCCC1
IC50 (Fatty acid synthase [1]): 8.78 µM (active)
IC50 (Fatty acid synthase [2]): 9.58 µM (active)

CCOC(=O)Cc1c(O)oc2nnc(C)c-2c1C
EC50 (Protein RecA): 19.1 µM (active)
AC50 [3]: > 380 µM (inactive)

COc1ccc(NC2CCCN(C(=O)CCc3ccncc3)C2)cc1OC (centres undefined)
AC50 [4]: 4.75 µM (active)

COc1ccc(C2CC(c3cccs3)=NN2C(=O)CSC2=NCCS2)cc1 (centres undefined)
EC50 [5]: 21.5 µM (active)
EC50 (Streptococcus): > 150 µM (not active)
EC50 (Streptokinase A): > 150 µM (not active)
EC50 (Protein RecA): 5.31 µM (active)
AC50 [3]: 10.9 µM (active)

CCCCCOP(=O)(OCCCCC)C1(NS(=O)(=O)c2ccccc2)C=CC(=O)c2ccccc21 (centres undefined)
EC50 (Protein RecA): 2.69 µM (active)
AC50 [3]: 2.96 µM (active)

Oc1ccc(Br)cc1-c1cc(-c2ccc(Cl)cc2)[nH]n1
AC50 (INS1): 4.87 µM (active)

c1cc2cc(c1)C[n+]1ccc(c3ccccc31)NCc1ccc(cc1)CNc1cc[n+](c3ccccc13)C2
AC50 (Cytochrome P450 2D6): 39.8 µM (inconclusive)

CN(C)S(=O)(=O)c1cccc(-c2cn3cccnc3n2)c1
AC50 [4]: 0.278 µM (active)

O=C(OCc1nnc(-c2ccccc2)o1)c1ccc2c(c1)OCCO2
AC50 (Cytochrome P450 2D6): 28.2 µM (inconclusive)

Cc1ccc(C2C(C#N)=C(N)Oc3[nH]nc(-c4cccs4)c32)s1 (centres undefined)
EC50 (Protein RecA): 1.82 µM (active)
AC50 [3]: 1.54 µM (active)

COC(=O)c1cc(NS(=O)(=O)c2ccc(N3CCCCCC3)c([N+](=O)[O-])c2)cc(C(=O)OC)c1
AC50 (Cytochrome P450 2D6): 12.6 µM (inconclusive)
AC50 (Cytochrome P450 1A2): 14.1 µM (inconclusive)

O=c1[nH]cc(O)c(=O)[nH]1
EC50 (Protein RecA): 9.27 µM (active)
AC50 [3]: 7.97 µM (active)

Cc1ccccc1CNc1ccc(C(CC(N)=O)NC(=O)c2ccc(Br)cc2)cc1[N+](=O)[O-] (centres undefined)
AC50 [6]: 0.986 µM (active)
AC50 (INS1): 14.9 µM (active)

Cc1n[nH]c2c1C(c1c[nH]nc1-c1ccc(F)cc1)C(C#N)=C(N)O2 (centres undefined)
EC50 (Protein RecA): 3.88 µM (active)
AC50 [3]: 12.1 µM (active)

COc1ccc(C(=O)NCC(=O)OCc2cccc(Br)c2)cc1
AC50 (Cytochrome P450 2D6): 15.8 µM (inconclusive)

O=C(CN1CCN(S(=O)(=O)c2ccc(Cl)cc2)CC1)Nc1ccc2c(c1)OCO2
AC50 (Cytochrome P450 1A2): 15.8 µM (inconclusive)
EC50 (Protein RecA): > 380 µM (inactive)
AC50 [3]: 55.9 µM (active)

COc1ccccc1CNc1ncnc2ccc(-c3c(C)noc3C)cc12
AC50 (Cytochrome P450 2C19): 31.6 µM (inconclusive)
AC50 (Cytochrome P450 2D6): 39.8 µM (inconclusive)
AC50 (Cytochrome P450 2C9): 0.794 µM (inconclusive)

COc1ccc(Cn2c(S)nnc2-c2ccc(OC)cc2)cc1
AC50 [4]: 0.009 µM (active)

CCNc1ncc2nc(-c3cccs3)c(=O)n(C[C@H]3CCCO3)c2n1
AC50 (Cytochrome P450 2D6): 0.2 µM (inconclusive)
AC50 (Cytochrome P450 3A4): 7.94 µM (inconclusive)

Cc1cc(C)n(-c2ccc([N+](=O)[O-])cc2)n1
EC50 (Protein RecA): > 380 µM (inactive)
AC50 [3]: > 380 µM (inactive)

CCNc1ccc(S(=O)(=O)N(C)C)cc1NCC(=O)Nc1ccccc1Cl
AC50 [4]: 5.58 µM (active)

O=C1NC(=O)N(c2cccc(F)c2)C(=O)/C1=C/c1c[nH]c2ccccc12
EC50 [7]: > 300 µM (not active)

Cc1nc2ccccc2n1CC(=O)N/N=C\C=C\c1ccccc1
AC50 (Cytochrome P450 2D6): 35.5 µM (inconclusive)

CC(CO)Nc1nc(SCc2ccccc2)nc2sc3c(c12)CCC3 (centres undefined)
AC50 (Cytochrome P450 2D6): 12.6 µM (inconclusive)

Cc1nc(C#N)c(N/N=C/c2cccc(Cl)c2)o1
AC50 [4]: 1.66 µM (active)

CC(C)c1cccc2nc3c(c([Si](C)(C)C)c12)Cn1c-3cccc1=O
AC50 (Cytochrome P450 2D6): 39.8 µM (inconclusive)
AC50 (Cytochrome P450 2C9): 39.8 µM (inconclusive)

COc1ccc(C(C(=O)Nc2ccc(F)cc2)N(C(=O)Cn2nnc3ccccc32)C2CC2)cc1 (centres undefined)
AC50 (Cytochrome P450 2C19): 10 µM (inconclusive)
AC50 (Cytochrome P450 2D6): 28.2 µM (inconclusive)

Cn1sc(NC(=O)c2ccc(Cl)cc2)nc1=O
AC50 [4]: 1.88 µM (active)

O=C(CCN1C(=O)/C(=C/c2cccs2)SC1=S)Nc1ccc(C(=O)O)c(O)c1
EC50 (Protein RecA): 13.3 µM (active)
AC50 [3]: 5.23 µM (active)

COc1ccc2[nH]c(N3CCCC3)nc2c1
AC50 [4]: 6.11 µM (active)

CN(C)S(=O)(=O)c1ccc(C(=O)N2CCN=C2SCc2cccnc2)cc1
AC50 [4]: 0.017 µM (active)

N#Cc1cccc(NC(=O)N2CCC3(CC2)CCN(C(=O)c2csnn2)CC3)c1
AC50 (Cytochrome P450 2D6): 15.8 µM (inconclusive)
AC50 (Cytochrome P450 3A4): 20 µM (inconclusive)
